Entries after “also recorded” stand apart in the source; their conditions may differ.
How the values were obtained:
integrin αvβ3 [1] = assay: Specificity of FITC-D-[c(RGDfK)]2 staining evaluated with excess cRGD peptides; format: binding, mouse; settings: 10 nM probe; 2-hour incubation with 200 nM (20-fold) cRGD before staining; choroidal flatmount
Description: Additionally, the specificity of FITC-D-[c(RGDfK)]2 staining was evaluated by using an excess of cRGD peptides. For this experiment, one mouse with identical laser-induced choroidal neovascularization in both eyes was sacrificed. One eye of the mouse was stained with the staining method described above using 10 nM of FITCD-[c(RGDfK)]2. The other eye was stained with the staining method described above plus a 2-hour incubation with excess cRGD peptides (for example, 20-fold molar concentration of the FITC-conjugated cRGD dimer, i.e., 200 nM) prior to the fluorescence staining. In this staining, the present inventors used an integrin αvβ3 antibody to investigate if the staining with the integrin αvβ3 antibody co-localized with that of the FITC-conjugated cRGD dimer.

integrin αvβ3 [2] = assay: Fluorescence staining of vessels in retinal and choroidal flatmounts using FITC-labeled RGD peptide; set-up: species or system mouse; settings: for staining of choroidal neovascularization lesions (laser-treated areas): ex vivo choroidal flatmount, 7 days after laser-induced choroidal neovascularization, C57BL/6 mice
Description: After intravenous anesthesia using a 1:1 mixture of 100 mg/mL ketamine and 20 mg/mL xylazine and pupillary dilatation using 5.0% phenylephrine and 0.8% tropicamide, C57BL/6 mice were placed on the Mayo stand (Coherent PC-920 Argon Ion Laser System; Coherent Medical Laser, Santa Clara, Calif.). Choroidal neovascularization was induced using 512-nm argon laser photocoagulation, with 100 urn of spot size and 100 mW of power for 0.1 s in the right eye. Five lesions of about 2-3 disc diameters were generated from the optic disc. The formation of bubbles upon laser delivery can be considered sufficient damage to induce rupture of Bruch's membrane and choroidal neovascularization. When subretinal hemorrhage occurred after the laser treatment, the mice were excluded from the experiment.
Ten eyes were prepared as choroidal flatmounts. For the flatmounts, mice were anesthetized at days 7 or 14 and eyes were enucleated and fixed with 4% paraformaldehyde for 30 min at 4° C. The anterior segment and retina were removed from the eyecup, and four radial incisions were made. The remaining retinal pigment epithelium (RPE)-choroid-sclera complex was flatmounted and coverslipped. Flatmounts were examined with a scanning laser confocal microscope (LSM710; Carl Zeiss, Oberkochen, Germany). […]
Fluorescence staining with FITC-D-[c(RGDfK)]^2 was performed as follows: • (1) the retinal and choroidal flatmounts were washed with PBS and incubated with FITC-D-[c(RGDfK)]2 for 30 minutes; • (2) the slides were washed with PBS several times, counterstained with 4′,6-diamidino-2-phenylindole (DAPI), and mounted with ProLong Gold anti-fade reagent (Life Technologies, Carlsbad, Calif., USA); • (3) and after staining, the flatmounts were mounted with the vitreous side up on glass slides and visualized on a confocal microscope (LSM710; Carl Zeiss, Oberkochen, Germany).

Sequence of integrin αvβ3 (P43406 31-885 limits assumed): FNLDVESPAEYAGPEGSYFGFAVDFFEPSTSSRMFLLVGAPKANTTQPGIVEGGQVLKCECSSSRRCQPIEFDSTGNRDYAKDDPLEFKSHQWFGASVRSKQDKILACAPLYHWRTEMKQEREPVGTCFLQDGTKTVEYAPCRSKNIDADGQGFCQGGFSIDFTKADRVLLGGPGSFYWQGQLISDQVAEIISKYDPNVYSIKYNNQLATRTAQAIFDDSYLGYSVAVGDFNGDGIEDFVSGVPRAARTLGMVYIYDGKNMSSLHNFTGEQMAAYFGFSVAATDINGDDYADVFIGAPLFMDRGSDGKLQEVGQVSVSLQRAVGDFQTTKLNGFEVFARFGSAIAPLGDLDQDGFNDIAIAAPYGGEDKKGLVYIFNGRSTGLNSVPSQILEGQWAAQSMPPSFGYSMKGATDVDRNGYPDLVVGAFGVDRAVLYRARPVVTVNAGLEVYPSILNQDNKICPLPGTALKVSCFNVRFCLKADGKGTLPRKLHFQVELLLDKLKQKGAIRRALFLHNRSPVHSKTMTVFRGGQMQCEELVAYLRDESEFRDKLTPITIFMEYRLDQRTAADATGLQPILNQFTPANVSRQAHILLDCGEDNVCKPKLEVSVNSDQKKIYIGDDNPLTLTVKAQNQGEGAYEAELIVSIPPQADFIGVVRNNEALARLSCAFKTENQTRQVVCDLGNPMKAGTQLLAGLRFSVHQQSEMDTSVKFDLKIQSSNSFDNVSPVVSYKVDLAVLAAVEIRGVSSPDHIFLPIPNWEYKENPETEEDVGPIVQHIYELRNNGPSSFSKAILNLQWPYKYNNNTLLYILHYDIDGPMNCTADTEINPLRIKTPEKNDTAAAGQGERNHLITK
Sequence of integrin αvβ3 (P43406 887-1044 partner limits assumed): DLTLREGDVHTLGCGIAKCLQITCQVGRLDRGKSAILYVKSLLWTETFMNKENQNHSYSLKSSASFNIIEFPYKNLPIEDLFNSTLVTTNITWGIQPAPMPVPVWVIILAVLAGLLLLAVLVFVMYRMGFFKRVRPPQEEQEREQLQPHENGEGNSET
Sequence of integrin αvβ3 (O54890 26-787, further chain): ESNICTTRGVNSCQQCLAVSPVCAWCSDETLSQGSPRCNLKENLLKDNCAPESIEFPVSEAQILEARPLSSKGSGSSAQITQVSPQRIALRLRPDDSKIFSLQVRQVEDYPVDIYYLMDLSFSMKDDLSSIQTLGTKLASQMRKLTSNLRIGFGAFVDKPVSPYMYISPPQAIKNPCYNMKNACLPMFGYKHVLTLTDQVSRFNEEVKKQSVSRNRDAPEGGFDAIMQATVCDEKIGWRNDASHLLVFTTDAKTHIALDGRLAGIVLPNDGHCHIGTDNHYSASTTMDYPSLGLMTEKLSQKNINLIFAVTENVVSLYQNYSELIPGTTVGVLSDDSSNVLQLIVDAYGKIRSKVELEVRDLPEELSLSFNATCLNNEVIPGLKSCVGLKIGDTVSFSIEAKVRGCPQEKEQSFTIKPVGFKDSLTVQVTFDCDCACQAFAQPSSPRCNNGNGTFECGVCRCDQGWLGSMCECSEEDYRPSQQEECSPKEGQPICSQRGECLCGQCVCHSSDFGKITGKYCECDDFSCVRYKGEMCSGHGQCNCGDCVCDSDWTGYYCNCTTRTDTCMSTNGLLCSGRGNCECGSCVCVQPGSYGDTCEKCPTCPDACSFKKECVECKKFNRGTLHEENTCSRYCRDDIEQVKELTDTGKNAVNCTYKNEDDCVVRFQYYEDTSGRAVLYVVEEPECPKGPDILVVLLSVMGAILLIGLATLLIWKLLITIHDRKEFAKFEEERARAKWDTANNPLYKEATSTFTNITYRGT

## FITC-D-[c(RGDfK)]2 [FITC-labeled cyclic RGD peptide]
Integrin αvβ3 [1]
  fluorescence of probe after pre-incubation with excess cRGD: remarkably reduced
Integrin αvβ3 [2]
  staining of choroidal neovascularization lesions (laser-treated areas): intense immunofluorescence staining; also recorded: allowed the visualization of choroidal neovascularization at laser-treated areas
Integrin αvβ3 [2]; listed as FITC-labeled RGD peptide
  staining of choroidal neovascularization lesions (laser-treated areas): laser-treated lesion stained with FITC-labeled RGD peptide corresponded to that stained with lectin
Integrin αvβ3 [2]; ex vivo untreated retina flatmount, lectin-positive normal vessels
  staining of normal vessels in the retina: barely stained

Source: patent publication US20220146519A1, “INTEGRIN ALPHA V BETA 3 TARGETING PROBE FOR DIAGNOSING RETINOCHOROIDAL NEOVASCULAR DISEASES AND PREPARATION METHOD THEREFOR” (SEOUL NATIONAL UNIVERSITY HOSPITAL, priority 2019, published 2022)
